Assay results taken from patent US6337316B1, “Pharmaceutical compositions thereof, and methods of using same” (Applied Research Systems ARS Holding N.V., priority 1997, dated 2002).
“Also recorded” adds a separate entry of the source. Peptide text beside a SMILES is read from it.

Assays:
[1] = tested on: binding of CTLA-4Ig to B7 on Cess B cells; assay: CTLA-4Ig/B7 binding assay on Cess B cells by FACS; conditions: FACS; assays of 3/24, 3/25, 4/5, 4/25; one symbol per assay
Procedure: +++ was assigned if the peptide tested gave >50% change in cpm in a dose dependent fashion. In addition to the MLR, these 34 peptides were also evaluated in a CTLA-4Ig/B7 binding assay in which the ability of these peptides to affect the binding of CTLA-4Ig to B7 on Cess B cells was examined by FACS analysis.
As with the MLR, a + or − was assigned to each peptide depending on its ability to effect CTLA-4Ig binding to Cess B cells; where − represents no change in binding, + represents a minor change of <10% in binding, and a ++ represents a change of >20% in binding.

[2] = tested on: primary peripheral blood lymphocytes (PBLs); assay: Toxicity test on growing cell cultures; format: cell-based, human; conditions: 100 μM AT 199
Procedure: (§1) To determine if the activity of AT 199 was due to a specific effect on lymphocyte proliferation in the MLR or due to a non-specific inhibition of lymphocyte proliferation in general (i.e., toxicity), the toxicity of AT 199 was tested against THP-1, Jurkat, and resting and activated PBLs.
(§2) AT 199 and its control analogs were assayed for overt toxicity and non-specific inhibition. The peptides were added to growing cultures of THP-1 cells, Jurkat cells and primary peripheral blood lymphocytes (PBLs).

[3] = tested on: lymphocyte proliferation in the human MLR; format: cell-based
Procedure: Whole blood from donors was obtained from Interstate Blood Bank, Memphis, Tenn. Blood specimens were handled in a biosafety level 2 containment facility as recommended for potentially infectious blood specimens in the CDC/NIH manual Biosafety in Microbiological and Biomedical Laboratories; 3rd edition, 1993, page 10. Peripheral blood mononuclear cells (PBMC) were separated from red blood cells and granulocytes by ficoll-hypaque purification. Whole peripheral blood was diluted 1:2 in PBS and 30 ml was overlayed onto 15 ml of ficoll-hypaque in 50 ml polypropylene tubes. The tubes were spun at 400×g for 30 min at 25° C. Following centrifugation, the interface between the upper plasma layer and the lower ficoll layer was collected, cells washed in RPMI-1640 2×, and viable counts determined using trypan blue. Cells to be used as responders in the assay were stored on ice until mitomycin C treatment of stimulator cells was completed.
PBMC, isolated as described above, to be used as stimulators in the assay were adjusted to 2-4×10^6 cells/ml in complete medium (RPMI 1640 containing 10% heat-inactivated human AB serum, 2 mM glutamine, 50 μM 2-mercaptoethanol and 100 U/ml penicillin-100 μg/ml streptomycin), and treated with mitomycin C (25 μg/ml) for 30 min in a 37° C. water bath. Following treatment, cells were washed with S volumes of complete medium 3×, and viable counts determine using trypan blue. To set up autologous stimulation controls some responder cells were also treated with mitomycin C as mentioned above.
Purified CTLA-4Ig fusion protein was produced, as described in Steurer et al. 1995, from a NS-1 cell line kindly donated by Dr. T. Strom (Beth Israel Hospital, Boston, Mass.) as a 1 mg/ml solution in sterile PBS. The protein was stored frozen at −80° C. Upon thawing, the aliquot was stored at 4° C. Purified peptides were lyophilized according to known procedures. Peptides were reconstituted in sterile PBS, pH 7.4 at 2 mM concentration, aliquoted in microfuge cubes and stored frozen at −20° C. For the assay, an aliquot of the peptide was thawed and diluted to 200 μM in complete medium.
For the one-way allogeneic mixed lymphocyte response (MLR) assay, responder cells were plated at 10^6 cells/well, and stimulator cells at 5×10^4 cells/well in 96-well round bottom plates. Cells were incubated with serial dilutions of the anti-CD4 Ab Leu 3A (1 μg/ml-0.06 μg/ml) in triplicate, or an isotype-matched control Ab. Cyclosporin A at 1 μg/ml was used as an additional control.
CTLA-4 Ig was serially diluted an.4 tested from 10 μg/ml to 0.15 μg/ml. Peptides were tested either directly or in the presence of a constant spiked-in dose of CTLA-4 Ig at 0.5 μg/ml. The plates were incubated at 37° C. in a humidified 5% CO2 atmosphere for 7 days.
Proliferation of the cells was determined by pulsing the wells with ^3H-Tdr (1 μCi/well) for the last 18 h of the assay. Plates were harvested using a Tomtec -late harvester and the counts incorporated determined using a Wallac microbetaplate plus reader.
A total of 34 peptides were tested for inhibition of lymphocyte proliferation in the human MLR. Each peptide was tested in a MLR at doses ranging from 12.5 to 100 μM. The activity of each peptide was identified by assigning a + and − tone peptide depending on its ability to inhibit lymphocyte proliferation in the MLR (cpms).

PHA activated PBLs = assay: Mitogen (PHA) stimulation assay of PBL, 3H-Tdr incorporation; format: cell-based, human; conditions: for effect on PHA activation of PBLs / PHA stimulated T cells: in words
Procedure: For these assays, ficoll-hypaque purified PBMC (10^5 cells/well) were incubated in flat-bottom 96-well tissue culture plates with indicated concentrations or phytohemagglutinin (PHA; 5, 2.5, 1.25, 0.5 μg/ml) for 3 days at 37° C. in a humidified 5% CO2/air incubator. Cells were incubated in the presence or absence of various concentrations of CTLA-4 Ig, purified anti-CD80 mAb (1 μg/ml), anti-CD86 mAb (1 μg/ml), and peptides 199 and 201 serially diluted from 100 μM to 12.5 μM for the period of the assay.
Proliferation of the cells was determined by pulsing the wells with ^3H-Tdr (1 μCi/well) for the last 6 h of the assay. Plates were harvested using a Tomtec plate harvester and the counts incorporated determined using a Wallac microbetaplate plus reader.
AT 199 was tested for inhibition of PHA activated PBLs. PHA activation, while not specifically targeted at the CD28 pathway, has some dependence on this pathway depending on the concentration of PHA used to activate lymphocytes. To determine the […] of phytohemagglutinin (PHA) activation on CD28 signaling, CTLA-4Ig was included in each assay.
In order to test for an unanticipated mechanism of inhibition, AT 199 was assayed using PHA-stimulation of PBLs. Phytohemagglutinin (PHA) is a lectin extracted from the red kidney bean and is a mixture of five tetrameric glycoprotein. PHA stimulates T cells in the presence of accessory cells (but not B cells) by cross-linking a variety of critical T cell surface molecules, including CD3, CD2, CD4, CD8 and LFA-1 (Geppert, 1992). The involvement of CD28 in this stimulation is dependent on the degree of crosslinking by PHA. At the appropriate concentration of PHA, the simultaneous engagement of cell surface receptors results in a proliferation response that can bypass the need for specific costimulatory signals such as CD28. This can be monitored by examining CTLA-4Ig inhibition of PHA mitogenesis.

Jurkat cells = assay: Toxicity test on growing cell cultures; format: cell-based; conditions: 100 μM AT 199
Procedure: as §1, §2

THP-1 cells = assay: Toxicity test on growing cell cultures; format: cell-based; conditions: 100 μM AT 199
Procedure: as §1, §2

[4] = tested on: murine MLR splenocyte proliferation; assay: One-way murine MLR (C57Bl/6 stimulators, BalB/c responders); format: cell-based, mouse; conditions: 10 μg/ml CTLA-4Ig; stated as similar to AT 199.3
Procedure: One-way murine MLRs were set up using the C57Bl/6 mice splenocytes as stimulators and BalB/c splenocytes as responders.
Spleens were excised from mice (Jackson Laboratories, Bar Harbor, Ma.) 6-8 weeks of age. Cells were separated from the capsule using sterile frosted glass slides and washed in cold RPMI 1640 1×. Red blood cells were lysed by treating the spleen cell suspension with cold Tris ammonium chloride buffer (2 ml/spleen) for 3 min on ice. After lysis, the cells were washed 2× in 5 volumes of complete medium (RPMI 1640 containing 10 % heat-inactivated FBS, 2 mM glutamine, 50 μM 2-mercaptoethanol, 100 U/ml penicillin-100 μg/ml strepcomycin, 1 mM sodium pyruvate and 1 mM non-essential amino acids).
Plastic-adherent cells were removed from splenocytes of BalB/c mice by adjusting the cell concentration to 3×10^6 cells/ml in complete medium and incubating the cells for 1.5-2 h at 37° C. in T-75 flasks. Following incubation non-adherent cells were collected by gently washing the flasks and the percent recovery determined (60-70%). Bal b/C responder cells were stored on ice until mitomycin C treatment of stimulator cells was completed.
Following RBC lysis splenocytes of C57Bl/6 mice were adjusted to 2-4×10^6 cells/ml in complete medium and treated with mitomycin C (50 μg/ml) for 30 min at 37° C. in a humidified 5% CO2 in air atmosphere. Following treatment, cells were washed with 5 volumes of complete medium 3×, and viable counts determined using trypan blue.
To set up autologous stimulation controls some responder cells were also treated with mitomycin C as mentioned above.
For the assay, responder and stimulator cells were plated at 10^5 cells/well in 96-well round bottom plates. […]
Appropriate scrambled peptide controls and matrix controls were included in every assay. […] Proliferation of the cells was determined by pulsing the wells with 3H-Tdr (1 μCi/well) For the last 6 h of the assay. Plates were harvested and the counts incorporated determined as described above.

B7-1 = molecular target: T1, B7-1 (Homo sapiens, UniProt P33681); conditions: CTLA-4Ig vs CD28Ig, higher affinity; cited from earlier work
T1 sequence (P33681 35-288): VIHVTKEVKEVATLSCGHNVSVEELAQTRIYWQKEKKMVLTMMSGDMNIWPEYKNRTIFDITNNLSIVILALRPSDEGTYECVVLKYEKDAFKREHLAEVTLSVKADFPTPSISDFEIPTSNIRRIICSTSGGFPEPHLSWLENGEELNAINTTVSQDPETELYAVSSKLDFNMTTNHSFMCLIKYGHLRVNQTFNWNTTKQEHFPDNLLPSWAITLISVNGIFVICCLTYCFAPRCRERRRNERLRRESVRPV

[5] = tested on: Th1-type cytokines and antigen specific T cells; conditions: delayed administration of the protein; cited from earlier work

CSCC[C@@H]1NC(=O)[C@H](CC(C)C)NC(=O)[C@@H](NC(=O)[C@H](CCCCN)NC(=O)[C@@H](N)CCCNC(=N)N)CSSC[C@@H](C(=O)N[C@@H](Cc2c[nH]cn2)C(=O)N[C@@H](Cc2c[nH]cn2)C(N)=O)NC(=O)[C@H](Cc2ccc(O)cc2)NC(=O)[C@H](Cc2ccc(O)cc2)NC(=O)[C@@H]2CCCN2C(=O)[C@@H]2CCCN2C(=O)[C@@H]2CCCN2C(=O)[C@H](Cc2ccc(O)cc2)NC1=O [AT 199.1, RKCLMYPPPYYCHH] (HELM PEPTIDE1{R.K.C.L.M.Y.P.P.P.Y.Y.C.H.H.[am]}$PEPTIDE1,PEPTIDE1,3:R3-12:R3$$$V2.0; N-terminus assumed)
Binding Assay (effect on CTLA-4Ig binding to Cess B cells) [1]: +, +, + | inhibition / effect on growth of resting primary PBLs [2]: no inhibition; also recorded: No effect | IC50 [3]: 50 to 100 µM | Human MLR (ability to inhibit lymphocyte proliferation, cpm) ([3]; peptide 12.5 to 100 μM, assays of 1/24, 1/31, 3/6, 4/17, 5/2, one symbol per assay): +, +, + | human MLR assays in which the peptide was active ([3]; total of 6 human MLR assays): 5 out of 6 | effect on PHA activation of PBLs / PHA stimulated T cells (PHA activated PBLs): only a minor effect; also recorded: did not inhibit | inhibition / effect on growth of Jurkat cells (Jurkat cells): no inhibition; also recorded: No effect | inhibition / effect on growth of THP-1 cells (THP-1 cells): no inhibition; also recorded: No effect

CTLA-4Ig: Purified CTLA-4Ig fusion protein (murine) produced from a NS-1 cell line as in Steurer et al. 1995
inhibition of the murine MLR [4]: ~85% | inhibition of PHA activation (PHA activated PBLs; 10 μg/ml CTLA-4Ig, PHA 2.5 and 5 μg/ml (FIG. 11)): 40-50% | effect on PHA activation of PBLs / PHA stimulated T cells (PHA activated PBLs): inhibited PHA activation slightly | affinity for B7-1 relative to CD28Ig (B7-1): 20-100 fold | blunted expansion of antigen specific T cells [5]: 50% | reduction in Th1-type cytokines [5]: 80-90%
